Results published in paper PMC6629693 (Scientific Reports, 2019).
“Also recorded” adds a separate entry of the source. Like-named read-outs stand apart in the source and are kept apart here.

Columns and labels:
D206N HtxB = D206N HtxB (Stutzerimonas stutzeri, UniProt O69061, D238N); test: biochemical; format: binding, Pseudomonas stutzeri
WT HtxB [1] = biological target: T1, WT HtxB (Stutzerimonas stutzeri, UniProt O69061); settings: pH 5
D206A HtxB [2] = biological target: T2, D206A HtxB (Stutzerimonas stutzeri, UniProt O69061, D238A)
WT HtxB [3] = biological target: T1, WT HtxB; settings: 10 mM phosphite, 1 mM HtxB
D206A HtxB [4] = biological target: T2, D206A HtxB; settings: 10 mM phosphite, pH range 4-9
[5] = Fig. 1; no reference given; cited from earlier work
HtxB = settings: cited from earlier work
WT HtxB [6] = biological target: T1, WT HtxB; test: biochemical
D206A HtxB [7] = biological target: T2, D206A HtxB; test: biochemical

Sequence of D206N HtxB (O69061 34-298 D238N limits assumed): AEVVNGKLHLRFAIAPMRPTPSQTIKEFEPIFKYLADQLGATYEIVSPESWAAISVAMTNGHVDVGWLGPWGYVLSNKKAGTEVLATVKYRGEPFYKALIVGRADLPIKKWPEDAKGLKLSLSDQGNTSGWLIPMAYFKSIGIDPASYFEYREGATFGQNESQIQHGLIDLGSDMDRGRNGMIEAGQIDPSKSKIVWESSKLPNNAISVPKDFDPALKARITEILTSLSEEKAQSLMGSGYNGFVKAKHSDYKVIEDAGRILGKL
T2 sequence (O69061 34-298 D238A): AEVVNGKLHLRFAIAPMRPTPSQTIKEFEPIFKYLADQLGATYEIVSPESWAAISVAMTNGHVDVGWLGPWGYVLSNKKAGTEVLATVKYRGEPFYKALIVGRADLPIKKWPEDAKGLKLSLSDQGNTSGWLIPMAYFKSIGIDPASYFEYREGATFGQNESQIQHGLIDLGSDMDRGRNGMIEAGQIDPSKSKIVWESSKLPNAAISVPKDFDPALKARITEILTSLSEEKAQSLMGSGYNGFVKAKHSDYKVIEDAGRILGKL
T1 sequence (O69061 34-298): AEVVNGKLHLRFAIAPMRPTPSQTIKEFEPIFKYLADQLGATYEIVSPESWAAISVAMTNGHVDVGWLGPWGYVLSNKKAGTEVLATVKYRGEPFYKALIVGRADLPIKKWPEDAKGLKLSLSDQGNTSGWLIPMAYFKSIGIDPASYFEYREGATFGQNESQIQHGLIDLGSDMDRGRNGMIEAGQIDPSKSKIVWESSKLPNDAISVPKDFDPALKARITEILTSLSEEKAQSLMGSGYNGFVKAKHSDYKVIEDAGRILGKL

Row | Compound | Kd (D206N HtxB) [mM] | Kd (D206N HtxB; read-out: Calculated Kd, pH 5) [mM] | fold lower affinity than hypophosphite at the same pH (WT HtxB [1]) | binding (in words) (D206A HtxB [2]; pH 7.4) | Kd (D206A HtxB [2]; read-out: Calculated Kd, pH 5) [mM] | pH of maximal line broadening (WT HtxB [3]; pH 9-4) | linebroadening of the 31P peak (in words) (WT HtxB [3]; reducing pH from 9 to 4) | linebroadening of the 31P peak (in words) (D206A HtxB [4]) | pKa2 [5] | Kd (HtxB; pH 7.4) [mM] | Kd (WT HtxB [6]) [mM] | Kd (D206A HtxB [7]) [mM] | ligand concentration at which protein was not saturated in full titration (D206N HtxB; 50 mM HEPES pH 7.4) [mM] | binding (in words) (D206N HtxB; 50 mM HEPES pH 7.4, 100 mM phosphate) | binding (in words) (HtxB)
1 | O=[PH](O)O [phosphite] | > 100 | > 100 | ca. 1000 × | No evidence of D206A HtxB binding | > 100 | 6 | significant linebroadening | did not show significant linebroadening | 1.3 | > 10 | 1.74 | > 100 | – | – | –
2 | phosphate | – | – | – | – | – | – | – | – | – | – | – | – | > 100 | weakly; also recorded: incredibly weak | does not bind
